According to ChEMBL document CHEMBL4043305, “Structure-Activity Relationship Study of Cyclic Pentapeptide Ligands for Atypical Chemokine Receptor 3 (ACKR3)” (J Med Chem, 2018):

Assays:
[1] = biological target: Atypical chemokine receptor 3 (Homo sapiens, UniProt P25106); assay: Displacement of [125I]SDF-1alpha from ACKR3 (unknown origin) expressed in CHO cells after 1 hr by scintillation counting method; type: cell-based
[2] = biological target: C-X-C chemokine receptor type 4 (Homo sapiens, UniProt P61073); assay: Displacement of [125I]SDF-1alpha from CXCR4 (unknown origin) expressed in HEK293 cells after 1 hr by scintillation counting method; type: cell-based
C-X-C chemokine receptor type 4, sequence (P61073 whole entry): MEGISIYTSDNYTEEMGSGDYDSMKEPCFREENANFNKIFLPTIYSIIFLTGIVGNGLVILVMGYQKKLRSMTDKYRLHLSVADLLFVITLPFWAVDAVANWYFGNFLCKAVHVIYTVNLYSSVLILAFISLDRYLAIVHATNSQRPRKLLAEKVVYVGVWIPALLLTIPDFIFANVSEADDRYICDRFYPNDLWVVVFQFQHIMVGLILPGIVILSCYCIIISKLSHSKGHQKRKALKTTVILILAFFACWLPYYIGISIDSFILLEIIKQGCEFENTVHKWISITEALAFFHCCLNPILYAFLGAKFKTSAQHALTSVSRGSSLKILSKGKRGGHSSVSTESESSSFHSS

Atypical chemokine receptor 3, sequence (P25106 whole entry): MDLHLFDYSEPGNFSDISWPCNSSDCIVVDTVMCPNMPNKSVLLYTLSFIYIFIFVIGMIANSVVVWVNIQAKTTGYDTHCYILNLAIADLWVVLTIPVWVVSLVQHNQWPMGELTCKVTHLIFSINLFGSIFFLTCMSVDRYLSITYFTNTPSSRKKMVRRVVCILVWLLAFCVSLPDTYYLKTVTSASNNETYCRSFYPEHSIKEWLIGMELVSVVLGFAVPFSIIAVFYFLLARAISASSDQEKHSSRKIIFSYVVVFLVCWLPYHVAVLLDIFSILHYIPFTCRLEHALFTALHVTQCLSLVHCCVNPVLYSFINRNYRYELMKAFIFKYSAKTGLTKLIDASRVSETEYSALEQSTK

| SMILES | IC50 [1] | IC50 [2] |
| --- | --- | --- |
| CN1C(=O)[C@@H]2CCCN2C(=O)[C@@H](Cc2ccc(O)cc2)NC(=O)[C@@H]2CCCN2C(=O)[C@H](Cc2ccc3ccccc3c2)NC(=O)[C@@H]1CCCNC(=N)N | 2 to 24 µM | > 30 µM |
| CN1C(=O)[C@H](CCCNC(=N)N)NC(=O)[C@@H](Cc2ccc(O)cc2)NC(=O)[C@@H]2CCCN2C(=O)[C@H](Cc2ccc3ccccc3c2)NC(=O)[C@@H]1CCNC(=N)N | 1.5 µM | > 30 µM |
| C[C@@H](O)[C@@H]1NC(=O)[C@@H](Cc2ccc(O)cc2)NC(=O)[C@@H]2CCCN2C(=O)[C@H](Cc2ccc3ccccc3c2)NC(=O)[C@H](CCCNC(=N)N)N(C)C1=O | 2 to 24 µM | > 30 µM |
| CN1C(=O)[C@H](CCCNC(=N)N)NC(=O)[C@@H](Cc2ccc(F)cc2)NC(=O)[C@@H]2CCCN2C(=O)[C@H](Cc2ccc3ccccc3c2)NC(=O)[C@@H]1CCCNC(N)=O | 1.2 µM | > 30 µM |
| CN1C(=O)[C@H](CCCNC(=N)N)NC(=O)[C@@H](Cc2ccc(O)cc2)NC(=O)[C@@H]2CCCN2C(=O)[C@H](Cc2ccc3ccccc3c2)NC(=O)[C@@H]1CCC(N)=O | 5.8 µM | > 30 µM |
| CN1C(=O)[C@H](CCCNC(=N)N)NC(=O)[C@@H](Cc2ccc(O)cc2)NC(=O)[C@H](Cc2ccccc2)N(C)C(=O)[C@H](Cc2ccc3ccccc3c2)NC(=O)[C@@H]1CCCNC(N)=O | 0.6 µM | > 30 µM |
| CN1C(=O)[C@H](Cc2cnc[nH]2)NC(=O)[C@@H](Cc2ccc(O)cc2)NC(=O)[C@@H]2CCCN2C(=O)[C@H](Cc2ccc3ccccc3c2)NC(=O)[C@@H]1CCCNC(=N)N | 2 to 24 µM | > 30 µM |
| CN1C(=O)[C@H](CCCNC(=N)N)NC(=O)[C@@H](Cc2ccc(O)cc2)NC(=O)[C@H](Cc2csc3ccccc23)N(C)C(=O)[C@H](Cc2ccc3ccccc3c2)NC(=O)[C@@H]1CCCNC(N)=O | 1 µM | > 30 µM |
| CN1C(=O)[C@H](CCCNC(=N)N)NC(=O)[C@@H](Cc2ccc(O)cc2)NC(=O)[C@@H]2Cc3ccccc3N2C(=O)[C@H](Cc2ccc3ccccc3c2)NC(=O)[C@@H]1CCCNC(N)=O | 0.19 µM | > 30 µM |
| CN1C(=O)[C@H](CCCNC(=N)N)NC(=O)[C@@H](Cc2ccc(O)cc2)NC(=O)[C@H](Cc2c[nH]c3ccccc23)NC(=O)[C@H](Cc2ccc3ccccc3c2)NC(=O)[C@@H]1CCCNC(N)=O | 0.85 µM | > 30 µM |
| CN1C(=O)[C@H](CCCN)NC(=O)[C@@H](Cc2ccc(O)cc2)NC(=O)[C@@H]2CCCN2C(=O)[C@H](Cc2ccc3ccccc3c2)NC(=O)[C@@H]1CCCNC(=N)N | 2.6 µM | > 30 µM |
| CN1C(=O)[C@H](CCCNC(=N)N)NC(=O)[C@@H](Cc2ccc(O)cc2)NC(=O)[C@@H]2CCCN2C(=O)[C@H](Cc2ccc3ccccc3c2)NC(=O)[C@@H]1CCCN | 1.3 µM | > 30 µM |
| CN1C(=O)[C@H](CCCCNC(=N)N)NC(=O)[C@@H](Cc2ccc(O)cc2)NC(=O)[C@@H]2CCCN2C(=O)[C@H](Cc2ccc3ccccc3c2)NC(=O)[C@@H]1CCCNC(=N)N | 0.84 µM | > 30 µM |
| CC(C)C[C@H]1C(=O)N[C@H](Cc2ccc(O)cc2)C(=O)N[C@@H](CCCNC(=N)N)C(=O)N(C)[C@@H](CCCNC(N)=O)C(=O)N[C@@H](Cc2ccc3ccccc3c2)C(=O)N1C | 1.9 µM | > 30 µM |
| CN1C(=O)[C@H](CO)NC(=O)[C@@H](Cc2ccc(O)cc2)NC(=O)[C@@H]2CCCN2C(=O)[C@H](Cc2ccc3ccccc3c2)NC(=O)[C@@H]1CCCNC(=N)N | 2 to 24 µM | > 30 µM |
| CN1C(=O)[C@H](CCCNC(=N)N)NC(=O)[C@@H](Cc2ccc(C(=O)c3ccccc3)cc2)NC(=O)[C@@H]2CCCN2C(=O)[C@H](Cc2ccc3ccccc3c2)NC(=O)[C@@H]1CCCNC(N)=O | 0.72 µM | > 30 µM |
| CN1C(=O)[C@H](Cc2ccccc2)NC(=O)[C@@H](Cc2ccc(O)cc2)NC(=O)[C@@H]2CCCN2C(=O)[C@H](Cc2ccc3ccccc3c2)NC(=O)[C@@H]1CCCNC(=N)N | 2 to 24 µM | > 30 µM |
| CN1C(=O)[C@H](CCCNC(=N)N)NC(=O)[C@@H](Cc2ccc(O)cc2)NC(=O)[C@@H]2CCCN2C(=O)[C@H](Cc2ccc3ccccc3c2)NC(=O)[C@@H]1CC(N)=O | 4.1 µM | > 30 µM |
| CN1C(=O)[C@H](CCCNC(=N)N)NC(=O)[C@@H](Cc2ccc(Br)cc2)NC(=O)[C@@H]2CCCN2C(=O)[C@H](Cc2ccc3ccccc3c2)NC(=O)[C@@H]1CCCNC(N)=O | 0.72 µM | > 30 µM |
| CN1C(=O)[C@H](CCCNC(=N)N)NC(=O)[C@@H](Cc2ccc3ccccc3c2)NC(=O)[C@@H]2CCCN2C(=O)[C@H](Cc2ccc3ccccc3c2)NC(=O)[C@@H]1CCCNC(N)=O | 0.69 µM | > 30 µM |
| CC(C)[C@@H]1NC(=O)[C@@H](Cc2ccc(O)cc2)NC(=O)[C@@H]2CCCN2C(=O)[C@H](Cc2ccc3ccccc3c2)NC(=O)[C@H](CCCNC(=N)N)N(C)C1=O | 2 to 24 µM | > 30 µM |

Further lines, results first:

| IC50 [1] | IC50 [2] | SMILES |
| --- | --- | --- |
| 4.2 µM | > 30 µM | CN1C(=O)[C@H](CCCNC(=N)N)NC(=O)[C@@H](Cc2ccc(O)cc2)NC(=O)[C@@H]2Cc3ccccc3CN2C(=O)[C@H](Cc2ccc3ccccc3c2)NC(=O)[C@@H]1CCCNC(N)=O |
| 2 to 24 µM | > 30 µM | CC[C@H](C)[C@@H]1NC(=O)[C@@H](Cc2ccc(O)cc2)NC(=O)[C@@H]2CCCN2C(=O)[C@H](Cc2ccc3ccccc3c2)NC(=O)[C@H](CCCNC(=N)N)N(C)C1=O |
| 2 to 24 µM | > 30 µM | CN1C(=O)[C@H](CCCCN)NC(=O)[C@@H](Cc2ccc(O)cc2)NC(=O)[C@@H]2CCCN2C(=O)[C@H](Cc2ccc3ccccc3c2)NC(=O)[C@@H]1CCCNC(=N)N |
| 1.1 µM | > 30 µM | CN1C(=O)[C@H](CCCNC(=N)N)NC(=O)[C@@H](Cc2ccccc2)NC(=O)[C@@H]2CCCN2C(=O)[C@H](Cc2ccc3ccccc3c2)NC(=O)[C@@H]1CCCNC(N)=O |
| 9.5 µM | > 30 µM | CN1C(=O)[C@H](CCC(N)=O)NC(=O)[C@@H](Cc2ccc(O)cc2)NC(=O)[C@@H]2CCCN2C(=O)[C@H](Cc2ccc3ccccc3c2)NC(=O)[C@@H]1CCCNC(=N)N |
| 2 to 24 µM | > 30 µM | CN1C(=O)[C@H](Cc2ccc(O)cc2)NC(=O)[C@@H](Cc2ccc(O)cc2)NC(=O)[C@@H]2CCCN2C(=O)[C@H](Cc2ccc3ccccc3c2)NC(=O)[C@@H]1CCCNC(=N)N |
| 4.9 µM | > 30 µM | CC(C)[C@H]1C(=O)N[C@H](Cc2ccc(O)cc2)C(=O)N[C@@H](CCCNC(=N)N)C(=O)N(C)[C@@H](CCCNC(N)=O)C(=O)N[C@@H](Cc2ccc3ccccc3c2)C(=O)N1C |
| 2.6 µM | > 30 µM | CN1C(=O)[C@H](CCNC(=N)N)NC(=O)[C@@H](Cc2ccc(O)cc2)NC(=O)[C@@H]2CCCN2C(=O)[C@H](Cc2ccc3ccccc3c2)NC(=O)[C@@H]1CCCNC(=N)N |
| 2.6 µM | > 30 µM | CN1C(=O)[C@H](CCCNC(=N)N)NC(=O)[C@@H](Cc2ccc(O)cc2)NC(=O)[C@H](Cc2ccc3ccccc3c2)N(C)C(=O)[C@H](Cc2ccc3ccccc3c2)NC(=O)[C@@H]1CCCNC(N)=O |
| 0.52 µM | 10 µM | CN1C(=O)[C@H](CCCNC(=N)N)NC(=O)[C@@H](Cc2ccc(O)cc2)NC(=O)[C@H](Cc2c[nH]c3ccccc23)N(C)C(=O)[C@H](Cc2ccc3ccccc3c2)NC(=O)[C@@H]1CCCNC(N)=O |
| 2 to 24 µM | > 30 µM | CC(C)C[C@@H]1NC(=O)[C@@H](Cc2ccc(O)cc2)NC(=O)[C@@H]2CCCN2C(=O)[C@H](Cc2ccc3ccccc3c2)NC(=O)[C@H](CCCNC(=N)N)N(C)C1=O |
| 2 to 24 µM | > 30 µM | CN1C(=O)[C@H](Cc2c[nH]c3ccccc23)NC(=O)[C@@H](Cc2ccc(O)cc2)NC(=O)[C@@H]2CCCN2C(=O)[C@H](Cc2ccc3ccccc3c2)NC(=O)[C@@H]1CCCNC(=N)N |
| 1.8 µM | > 30 µM | CSCC[C@H]1C(=O)N[C@H](Cc2ccc(O)cc2)C(=O)N[C@@H](CCCNC(=N)N)C(=O)N(C)[C@@H](CCCNC(N)=O)C(=O)N[C@@H](Cc2ccc3ccccc3c2)C(=O)N1C |
| 0.41 µM | > 30 µM | CN1C(=O)[C@H](CCCNC(=N)N)NC(=O)[C@@H](Cc2ccccc2F)NC(=O)[C@@H]2CCCN2C(=O)[C@H](Cc2ccc3ccccc3c2)NC(=O)[C@@H]1CCCNC(N)=O |
| 3.2 µM | > 30 µM | CN1C(=O)[C@H](CCCNC(=N)N)NC(=O)[C@@H](Cc2c[nH]c3ccccc23)NC(=O)[C@@H]2CCCN2C(=O)[C@H](Cc2ccc3ccccc3c2)NC(=O)[C@@H]1CCCNC(N)=O |
| 0.79 µM | > 30 µM | CN1C(=O)[C@H](CCCNC(=N)N)NC(=O)[C@@H](Cc2ccc(Cl)cc2)NC(=O)[C@@H]2CCCN2C(=O)[C@H](Cc2ccc3ccccc3c2)NC(=O)[C@@H]1CCCNC(N)=O |
| 2 µM | > 30 µM | CN1C(=O)[C@H](CCCNC(=N)N)NC(=O)[C@@H](Cc2ccc([N+](=O)[O-])cc2)NC(=O)[C@@H]2CCCN2C(=O)[C@H](Cc2ccc3ccccc3c2)NC(=O)[C@@H]1CCCNC(N)=O |
| 5 µM | > 30 µM | CN1C(=O)[C@H](CCCNC(=N)N)NC(=O)[C@@H](CCc2ccccc2)NC(=O)[C@@H]2CCCN2C(=O)[C@H](Cc2ccc3ccccc3c2)NC(=O)[C@@H]1CCCNC(N)=O |
| 13 µM | > 30 µM | CN1C(=O)[C@H](CCCNC(=N)N)NC(=O)[C@@H](Cc2ccc(O)cc2)NC(=O)[C@@H]2CCCN2C(=O)[C@H](Cc2ccc3ccccc3c2)NC(=O)[C@@H]1CCCNC(N)=O |
| 1.3 µM | > 30 µM | CN1C(=O)[C@H](CCCNC(=N)N)NC(=O)[C@@H](Cc2cccc(F)c2)NC(=O)[C@@H]2CCCN2C(=O)[C@H](Cc2ccc3ccccc3c2)NC(=O)[C@@H]1CCCNC(N)=O |
| 0.54 µM | > 30 µM | CN1C(=O)[C@H](CCCNC(=N)N)NC(=O)[C@@H](Cc2csc3ccccc23)NC(=O)[C@@H]2CCCN2C(=O)[C@H](Cc2ccc3ccccc3c2)NC(=O)[C@@H]1CCCNC(N)=O |
| 0.45 µM | – | CN1C(=O)[C@H](CCCCNC(=N)N)NC(=O)[C@@H](Cc2ccccc2F)NC(=O)[C@H](Cc2cccc3ccccc23)N(C)C(=O)[C@H](Cc2ccc3ccccc3c2)NC(=O)[C@@H]1CCCCNC(=N)N |
